Reference: US20130296347A1, “Compositions and Methods for Prophylaxis and Treatment of Addictions” (Omeros Corporation, priority 2007, published 2013)
“Also recorded” adds a separate entry of the source.

What was measured:
Wistar rats = assay: Acquisition of heroin self-administration (FR1); type: in vivo, rat
msP rats = assay: Acute voluntary ethanol intake, free choice 10% alcohol 24 hours a day; type: in vivo, rat
Experimental: MsP rats were first trained to drink 10% (w/v) alcohol for 24 hours a day (free choice between water and ethanol). […] Before starting the treatment, rats were trained to gavage administration procedures for three days, during which they received vehicle (distilled water). […] Drinking experiments started at the beginning of the dark cycle. Alcohol, water and food intakes were monitored at 2, 8 and 24 hours after ethanol was made available.
Before starting the treatment, rats were trained to gavage and IP administration procedures for three days. Experiment was conducted in a between subject design (n=22). […] Drinking experiments started at the beginning of the dark cycle. Alcohol, water and food intakes were monitored at 2, 8 and 24 hours after ethanol was made available.
The drinking experiments were conducted at the beginning of the dark cycle, and alcohol, water and food intakes were monitored at 2, 8 and 24 hours after ethanol was made available.
MsP rats were first trained to drink 10% (w/v) alcohol for 24 hours a day (free choice between water and ethanol). […] Rats treated with drug vehicles served as a control. Before starting the treatment, rats were trained to gavage administration for three days, during which they received drugs vehicle (distilled water). […] Drinking experiments started at the beginning of the dark cycle. Alcohol, water, and food intakes were monitored at 2, 8 and 24 hours after ethanol was made available.
(§1) MsP rats were first trained to drink 10% (w/v) alcohol for 24 hours a day (free choice between water and ethanol). […] Rats treated with drug vehicles served as a control. Before starting the treatment, rats were trained to gavage administration for three days, during which they received drugs vehicle (distilled water). […] Drinking experiments started at the beginning of the dark cycle. Alcohol, water and food intakes were monitored at 2, 8 and 24 hours after ethanol was made available.
as §1, §1, §1, §1

[1] = system: Marchigian Sardinian alcohol-preferring (msP) rats; assay: Subchronic (7 days) voluntary ethanol intake, 10% alcohol available 24 hours/day; type: in vivo, rat
Experimental: At the beginning of the experiments, msP rats were allowed free choice between water and 10% (v/v) alcohol 24 h/day for at least 15 days. The fluids were offered in graduated drinking tubes equipped with metallic drinking spouts. The position (to the right or left) of alcohol and water drinking tubes was changed daily to avoid the development of side preference. Water and food were available ad libitum, while alcohol access was either restricted to 2 hours/day (Examples 1 and 2) or was available 24 hours/day (Examples 3 and 4). Alcohol, water and food intakes were measured.
[…]. Before starting the treatment, rats were trained to gavage administration procedures for three days, during which they received vehicle (distilled water).
Alcohol, water and food intakes were monitored at 2, 8 and 24 hours. Fluids and food intakes were monitored for three additional days after the end of the drug treatment period.
[…]. According to a between-subject design, four groups of msP rats (N=9/group) were prepared as described in Example 3. […] […]. Alcohol, water and food intakes were monitored at 2, 8 and 24 hours. Fluids and food intakes were monitored for three additional days after the end of the drug treatment period.

alcoholic patients = assay: Observational study of alcohol abuse in human patients; type: in vivo
Excerpt: ACT)+psychotherapy. […] Patients were instructed to record in a personal logbook the number of drinks per day and the time of the day drinks occurred. At the end of the study, the logbooks were returned to the clinical personnel who analyzed the data. […] In addition, biochemical parameters to ascertain alcohol detoxification and to measure recovery of physiological functions (i.e., hepatic function) were monitored monthly. Hematological parameters measured included: mean corpuscular volume (MCV); gamma-GT; aspartate aminotransferase (AST); alanine aminotransferase (ALT); and carbohydrate-deficient transferring (CDT). MCV and CDT are biomarkers for ethanol consumption, and GGT, ALT and AST are biomarkers for hepatic functionality. Data were analyzed by analysis of variance followed by Newman-Keuls post hoc tests when appropriate.

Long Evans rats = assay: FR5 nicotine self-administration; type: in vivo, rat; conditions: pioglitazone 30 mg/kg OS 12 hours and 1 hour before session; p<0.05
Experimental: Bupropion hydrochloride (Sigma, Milan, Italy) was dissolved in saline. Nicotine tartrate (Sigma, Milan, Italy) was dissolved in isotonic saline at a concentration of 0.03 mg/0.1 ml free base. The pH of the nicotine solution was adjusted to 7 with dilute NaOH. Drug or vehicle solution was infused at a volume of 0.1 ml over 4 s.
Male Long Evans rats weighing between 180 and 200 g at the time of arrival in the lab were used. The rats were housed in groups of three in a humidity- and temperature-controlled (22° C.) vivarium on a 12 h:12 h reverse light/dark cycle (on, 17:00; off, 05:00) with ad libitum access to food and water. One week after arrival, the rats were subjected to surgery, and a silastic catheter was implanted into the right jugular vein.
After the successful completion of cocaine training, rats were allowed to self-administer nicotine at the 0.03 mg/kg/infusion dose by switching the delivery of cocaine for the delivery of a nicotine infusion. Nicotine self-administration training continued until stable baseline of responding was established (less than 20% variation for 3 consecutive days calculated for each single rat). At this point, drug testing began.
. […] A 3-day interval was allowed between drug testing. During these intervals, nicotine self-administration was continued to re-establish lever responses baseline.
Statistical significance was set at P<0.05

[2] = pioglitazone 30 mg/day or naltrexone 50 mg/day + psychotherapy

With CCc1ccc(CCOc2ccc(CC3SC(=O)NC3=O)cc2)nc1.Cl (stereo not shown) [pioglitazone] the “heroin self-administration versus control, day 3 to day 8” value (Wistar rats; pioglitazone 30 mg/kg twice daily) was “significant difference”, the “acquisition of heroin self-administration” value (Wistar rats; pioglitazone 30 mg/kg twice daily (12 hours and 1 hour prior to session)) was “significantly decreased” and the “ethanol intake, drug alone (post-hoc)” value (msP rats; low dose given at 12 hours and 1 hour before access, pioglitazone 10 mg/kg OS, partner drugs at doses of the examples) was “did not significantly modify”. For the same compound, the “ethanol intake at 2 hours, drug alone” value (msP rats; pioglitazone 10 mg/kg OS, topiramate 30.0 mg/kg OS, p<0.05) was “significant reduction”, the “ethanol consumption at 2 hours” value (msP rats; pioglitazone 30 mg/kg OS) was “significantly reduced” and the “ethanol consumption at 8 hours” value (msP rats; pioglitazone 30 mg/kg OS) was “significantly reduced”. For the same compound, the “ethanol consumption at 24 hours” value (msP rats; pioglitazone 30 mg/kg OS) was “significantly reduced”, the “voluntary ethanol intake, overall” value ([1]; pioglitazone 10.0 or 30.0 mg/kg OS twice a day for 7 days) was “significantly reduced” and the “ethanol intake starting from the 4th day of treatment” value ([1]; pioglitazone both doses (10 and 30 mg/kg)) was “significantly reduced”. The “ethanol intake, onset of effect” value ([1]; pioglitazone highest dose (30 mg/kg), 7 days) was “appeared from the first day of treatment”, the “hepatic parameters (GGT, ALT, AST)” value (alcoholic patients; 2-month treatment) was “more pronounced” and the “Anxiety Score, STAY-Y1 scale (mean score values)” value (alcoholic patients; T = 1.1 (month 1, week 1)) was 58. The “Depression Scale M.A.D.R.S (mean score values)” value (“Depression Scale M.A.D.R.S” below) (alcoholic patients; T = 1.3) was 10, the “Depression Scale M.A.D.R.S” value (alcoholic patients; T = 1.4) was 11 and the “Depression Scale M.A.D.R.S” value (alcoholic patients; T = 2.3) was 10. The “depression score, time course” value (alcoholic patients; during treatment with pioglitazone 30 mg/day) was “decreased starting from the second week of treatment”, the “effect on daily drinks, comparison of drugs” value (alcoholic patients; month 2 week 2 (T2.2) to month 2 week 4 (T2.4), p<0.001) was “significantly higher than that of naltrexone” and the “blood parameters (MCV, CDT, GGT, ALT, AST)” value (alcoholic patients; pioglitazone 30 mg/day) was “rapid normalization”. The “progressive decrease in anxiety score during treatment” value (alcoholic patients; pioglitazone 30 mg/day) was “highest effect”, the “progressive decrease in obsessive compulsive score for alcohol (OCDS)” value (alcoholic patients; pioglitazone 30 mg/day) was “extremely robust; also recorded: consistently reduced” and the “daily ethanol intake (number of daily drinks)” value (alcoholic patients; [2]) was “significantly reduced”. For the same compound, the “number of abstinence days” value (alcoholic patients; [2]) was “increased; also recorded: highest effect”, the “CDT and AST, naltrexone versus pioglitazone” value (alcoholic patients; post hoc) was “No significant difference” and the OCDS versus controls (alcoholic patients; post hoc, P<0.001) was “statistically significant difference”. The “all five blood biomarkers versus controls (psychotherapy alone)” value (alcoholic patients; post hoc, P<0.001) was “statistical difference”, the “reducing the values of MCV, GGT and ALT, comparison of drugs” value (alcoholic patients; post hoc, P<0.001) was “more effective than naltrexone” and the “MADRS depression score, pioglitazone versus naltrexone” value (alcoholic patients; post hoc, p<0.001) was “significantly different”. For the same compound, the “OCDS, pioglitazone versus naltrexone” value (alcoholic patients; post hoc, p<0.001) was “more effective than naltrexone”, the “anxiety score, pioglitazone versus naltrexone” value (alcoholic patients; post hoc, p<0.001) was “more effective than naltrexone” and the “number of abstinence days, comparison of drugs” value (alcoholic patients; second month of therapy (T 2.1-T2.4)) was “significantly higher”. The nicotine self-administration (Long Evans rats) was “significantly reduced”.
